# Assay results: patent US20070269503A1, “Combinations of HMG CoA reductase inhibitors and negatively charged phospholipids and uses thereof” (priority 2006, published 2007)
# Where two headings read alike, the source gives them in different places.
# Key:
# HepG2 cells = details: cited from earlier work
# [1] = normocholesterolemic male Sprague-Dawley rats; 5.5% by weight of rat chow, approximately 4 g/Kg body weight; cited from earlier work
# [2] = Oral PI, plasma HDL cholesterol and apoA-I; assay type: in vivo; details: conventional formulations, about 5.6 g/day
# Excerpt: The efficacy of orally administered phosphatidyl-inositol(PI) for raising plasma HDL cholesterol and apoA-I levels can be improved considerably (e.g. 2- to 8-fold) by combining PI with an intestinal absorption enhancer (IAE) (U.S. patent application Ser. No. 60/684212, herein incorporated by reference).
# [3] = oral PI combined with an intestinal absorption enhancer (IAE); cited from earlier work
compound,measurement,setting,value
CC(C)c1c(C(=O)Nc2ccccc2)c(-c2ccccc2)c(-c2ccc(F)cc2)n1CC[C@@H](O)C[C@@H](O)CC(=O)O [atorvastatin],inhibition of cholesterol synthesis,HepG2 cells; concentrations between 0.01 to 10 μM,45-65%
Phosphatidic acid [PA],decrease in plasma triglycerides,[1],about 40%
same,increase in HDL cholesterol,[1],about 2 fold
phosphatidylinositol [PI],increase in apoA-I,[2],~10%
same,increase in plasma HDL cholesterol,[2],~20%
same,improvement of efficacy for raising plasma HDL cholesterol and apoA-I levels,[3],2- to 8 fold
same,inhibition of cholesterol synthesis,HepG2 cells; 11.7 μM,50%
